“Also recorded” adds a separate entry of the source.
Assays:
[1] = biological target: T1, BACE1 (Homo sapiens, UniProt P56817); experiment: cell-based BACE1 assay (sAPPβ modified ELISA) in SY5Y-BACEGFP-SEAPAPPwt cells; conditions: for IC50: 8-point dose-response (30-0.01 μM)
T1 construct: GFP; expressed in transfected cells; host or cells: SY5Y cells (SY5Y-BACEGFP-SEAPAPPwt), stably transfected
Method: FIG. 8 depicts a sAPPβ assay utilized to identify inhibitors of BACE1. The assay utilizes SY5Y cells stably overexpressing BACE-GFP and SEAP-APPwt. Cells are incubated with a candidate compound for 6 hours prior to harvesting media. BACE1-mediated cleavage of APP results in the release of sAPPβ into the media. α-secretase, a competing enzyme that is non-amyloidogenic, also cleaves APP to release […]. Using an sAPPβ-specific antibody (sβwt), SEAP-sAPPβ is specifically captured in a modified ELISA assay. Detection is achieved by addition of the fluorescent alkaline phosphatase substrate, 4-methylumbelliferyl phosphate (4-MUP).
FIG. 10A-B depicts SAR studies of N-(quinolin-8-yl)benzenesulfonamides. 28 full and partial hits, shown in (A) for compounds 1-26 and (B) for compounds 27 and 28, from the targeted screen of N-(quinolin-8-yl)benzenesulfonamides were characterized in SY5Y-BACEGFP-SEAPAPPwt cells using the cell-based BACE1 assay. All compounds were tested at 8 concentrations (30, 10, 3, 1, 0.3, 0.1, 0.03, and 0.01 μM), and data points were analyzed with Origin software and fitted using a logistic model for IC50 determination.
A cell-based modified ELISA assay for measuring sAPPβ, the secreted ectodomain of β-amyloid precursor protein (APP) following […] (BACE1) cleavage, was used to identify a class of compounds that interfered with the first step of sAPPβ generation. This assay has been described in International Application PCT/US2007/015938 (Published as International Publication No. WO 08/008,463), which is herein incorporated in its entirety for all purposes.
The SY5Y-BACEGFP-SEAPAPPwt cell based assay was developed to discover novel small molecule modulators of BACE1 activity. SY5Y cells were stably transfected with GFP-tagged BACE1 (BACE-GFP) and secreted alkaline phosphatase (SEAP)-tagged wildtype APP (SEAP-APPwt). BACE1 cleavage of SEAP-APPwt results in secretion into the media of SEAP-tagged sAPPβ, which is collected and specifically captured using an sAPPβ cleavage site-specific antibody (sβwt). After washing, the fluorescent alkaline phosphatase substrate 4-methylumbelliferyl phosphate (4-MUP) is used to detect the captured SEAP-sAPPβ (FIG. 8).
176 compounds were tested in the primary screen (FIG. 9). Briefly, each compound (10 mM stock in DMSO) was diluted 1:25 in DMSO and loaded onto 96-well plates to generate a 400 μM stock plate. 1 μl of each compound was then diluted 1:200 with cell culture media (0.5% DMSO concentration) in two separate 96-well plates for a final screening concentration of 2 μM. 150 μl of media containing compound was then transferred onto SY5Y-BACEGFP-SEAPAPPwt cells in 96-well format, and the BACE1 assay was performed as described previously. The primary screen was conducted in duplicate. A parallel screen was conducted at 10 μM concentration, also in duplicate. […] Percent inhibition of the fluorescence signal was calculated as 100×[DMSO control−compound]/DMSO control The majority of data points were clustered between −25% and 25% inhibition of sAPPβ fluorescence signal (FIG. 9A). The Z′ factors for all 4 96-well plates used in the primary screen were above 0.7 (data not shown). The threshold for hit selection was set at 3 standard deviations, or 59.76% inhibition, yielding 6 small molecule hits and a hit rate of 3.41% (FIG. 9B).
28 full and partial hits were characterized in 8-point dose-response experiments for IC50 determination in SY5Y-BACEGFP-SEAPAPPwt cells (FIG. 10).

[2] = test system: Aβ40; experiment: Aβ40 / sAPPβ levels in Lenti-APPsw infected primary cortical neurons; assay type: cell-based, mouse
Method: FIG. 11A-B depicts Lentiviral-mediated transduction of APPsw in primary neurons. Primary cortical neurons were harvested from wild-type P0 mice and cultured according to established protocols. Lentivirus harboring human Swedish mutant APP (Lenti-APPsw) was packaged using ViraPower Lentiviral Packaging mix (Invitrogen) according to the manufacturer's protocol. DIV-14 neurons were incubated for 24 hours with primary culture media containing the indicated volume (in μl) of virus (LV-1 and LV-2 denote 2 separate batches of virus, 0 denotes no virus was used). After infection, neurons were incubated for 72 hours with primary culture media. Media was collected for Aβ40 ELISA (Bio Source), and cell lysates were probed with APPCT antibody to visualize transduced full-length APP. (A) Bar graph depicting results; (B) Assay results.
FIG. 13A-B depicts the effect of CU-264 on Aβ expressing primary cortical neuron cultures from wild-type mice transformed with lentivirus harboring APPsw. […] At 10 μm, CU-264 increased Aβ levels. (A) Bar graph depicting results; (B) Assay results.
The previously described hit was further analyzed in physiologically relevant systems, e.g. primary neurons and Alzheimer's model mice. Two complementary neuronal cell systems were employed to test the effects of candidate compounds on various aspects of APP processing: cultured mouse cortical neurons (postnatal day 0) infected with recombinant lentivirus carrying human APPsw (Lenti-APPsw; FIG. 11); and cultured cortical neurons prepared from Tg2576 mice (carrying human APPsw transgene under the control of the PrP promoter). Lenti-APPsw infected cortical neurons can be prepared in a relatively large scale, but suffer from variability in lentiviral infection efficiency, resulting in variable levels of APP expression. In contrast, cortical neurons derived from Tg2576 provide constant APP expression. However, neuronal yield is generally much lower, since only half the pups will contain the transgene when heterozygote crossbreeds were conducted. Therefore, Initial characterization experiments were performed using cortical neurons infected with Lenti-APPsw.
Lenti-APPsw infected primary cortical neurons were used for the initial round of physiological experiments. Primary cortical neurons were harvested from wild-type P0 pups using established protocols.
The Lenti-APPsw vector was co-transfected into HEK293 T cells with ViraPower packaging mix (Invitrogen) to generate the lentivirus. Lentiviral-mediated transduction of APPsw in primary neurons was performed by adding neuron primary culture media containing the lentiviral particles to wild-type DIV-14 primary neurons (FIG. 11). After 24 hours, neurons were incubated with media for 72 hours prior to collecting for Aβ40 measurement. Two batches of virus (LV-1 and LV-2) were tested, showing that there is batch-to-batch variation in the viral titer.
Using this experimental paradigm, CU-264 was tested at 10 and 2 μM concentrations to examine the sAPPβ- and Aβ-lowering activity of the compound. The protocol was modified slightly to allow for 24-hour compound treatment. DIV-14 wild-type primary neurons (FIG. 12) cultured on 6-well plates were incubated for 24 hours with primary culture media containing lentiviral particles. After infection, fresh media was mixed in a 1:1 ratio with conditioned media collected prior to lentiviral infection, and applied to the cells for 48 hours to allow for APP expression. […]

T1 sequence (P56817 46-501): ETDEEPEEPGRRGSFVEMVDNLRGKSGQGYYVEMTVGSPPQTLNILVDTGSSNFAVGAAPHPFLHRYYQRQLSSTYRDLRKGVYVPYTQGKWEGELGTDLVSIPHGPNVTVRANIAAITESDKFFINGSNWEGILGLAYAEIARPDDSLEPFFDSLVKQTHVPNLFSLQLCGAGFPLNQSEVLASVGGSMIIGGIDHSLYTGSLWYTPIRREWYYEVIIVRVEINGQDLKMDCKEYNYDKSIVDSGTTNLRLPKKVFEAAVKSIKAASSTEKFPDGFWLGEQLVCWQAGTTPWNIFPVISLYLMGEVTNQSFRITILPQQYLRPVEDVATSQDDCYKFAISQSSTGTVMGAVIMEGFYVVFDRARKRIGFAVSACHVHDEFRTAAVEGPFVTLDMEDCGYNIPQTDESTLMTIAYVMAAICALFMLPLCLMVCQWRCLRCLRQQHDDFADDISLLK

Row | SMILES | IC50 [1] [µM] | other results
1 | O=S(=O)(Nc1cc(Br)cc2cccnc12)c1ccccc1 [CU-166] | 13.4 | –
2 | O=S(=O)(Nc1cccc2cccnc12)c1cccs1 [CU-150] | 8.03 | –
3 | COc1cc(NS(=O)(=O)c2cccc3ccccc23)c2ncccc2c1 [CU-295] | 3.63 | –
4 | Cc1ccc2ccc3c(c2n1)NS(=O)(=O)c1ccc(C(F)(F)F)cc1-3 [CU-282] | 1.11 | –
5 | COc1ccc(S(=O)(=O)Nc2cccc3cccnc23)c(N)c1 [CU-271] | 2.74 | –
6 | COc1cc(NS(=O)(=O)c2ccccc2[N+](=O)[O-])c2ncccc2c1 [CU-268] | 8.11 | –
7 | O=S1(=O)Nc2c(ccc3cccnc23)-c2cc(C(F)(F)F)ccc21 [CU-262] | 0.82 | potency for sAPPβ reduction (in words) [1]: sub-micromolar
8 | Nc1ccccc1S(=O)(=O)Nc1cccc2cccnc12 [CU-242] | 3.82 | –
9 | Cc1ccc2cccc(NS(=O)(=O)c3ccc(C(F)(F)F)cc3N)c2n1 [CU-281] | 3.28 | –
10 | Cc1ccc2cccc(NS(=O)(=O)c3ccccc3[N+](=O)[O-])c2n1 [CU-273] | 12.4 | –
11 | O=S(=O)(Nc1cccc2cccnc12)c1ccc2ccccc2c1 [CU-155] | 2.2 | –
12 | Cc1ccc(S(=O)(=O)Nc2cc(Br)cc3cccnc23)cc1 [CU-167] | 1.09 | –
13 | Cc1ccc(S(=O)(=O)Nc2cccc3ccc(C)nc23)cc1 [CU-225] | 3.79 | –
14 | O=[N+]([O-])c1cc(C(F)(F)F)ccc1S(=O)(=O)Nc1cccc2cccnc12 [CU-265] | 2.95 | –
15 | O=S(=O)(Nc1cc(Br)cc2cccnc12)c1cccc2cccnc12 [CU-168] | 17.2 | –
16 | COc1ccc(S(=O)(=O)Nc2cccc3cccnc23)cc1 [CU-151] | 5.92 | –
17 | O=[N+]([O-])c1ccccc1S(=O)(=O)Nc1cccc2cccnc12 [CU-153] | 1.58 | –
18 | COc1ccc(S(=O)(=O)Nc2cccc3cccnc23)c([N+](=O)[O-])c1 [CU-261] | 1.92 | –
19 | O=S(=O)(Nc1cccc2cccnc12)c1cccc2ccccc12 [CU-131] | 6.46 | –
20 | COc1ccc(S(=O)(=O)Nc2cccc3ccc(C)nc23)c(N)c1 [CU-278] | 11.5 | –
21 | Nc1cc(C(F)(F)F)ccc1S(=O)(=O)Nc1cccc2cccnc12 [CU-264] | 0.53 | Aβ40 levels in more physiological assay [2]: raising; sAPPβ levels in more physiological assay [2]: raising; Aβ40 levels in primary neurons ([2]; 2 μM CU-264, 24-hour treatment): does not reduce; Aβ levels in primary neurons ([2]; 10 μM, 24-hour treatment): increased; Aβ40 in primary neurons ([2]; tested at 10 and 2 μM, 24-hour treatment): did not reduce; potency for sAPPβ reduction (in words) [1]: most potent analog; also recorded: sub-micromolar; also recorded: most potent compound
22 | Cc1ccc2cccc(NS(=O)(=O)c3ccc(C(F)(F)F)cc3[N+](=O)[O-])c2n1 [CU-280] | 5.51 | –
23 | COc1cc(NS(=O)(=O)c2ccc3ccccc3c2)c2ncccc2c1 [CU-294] | 3.75 | –
24 | Cc1ccc2cccc(NS(=O)(=O)c3ccccc3N)c2n1 [CU-274] | 11.1 | –
25 | O=S(=O)(Nc1cc(Br)cc2cccnc12)c1cccc2ccccc12 [CU-138] | 9.51 | –
26 | O=[N+]([O-])c1ccc(S(=O)(=O)Nc2cccc3cccnc23)cc1 [CU-152] | 4.63 | –
27 | O=S(=O)(Nc1cccc2cccnc12)c1cccc2cccnc12 [CU-156] | 4.23 | –

Reference: patent US8685963B2, “Compounds that inhibit NFκB and BACE1 activity” (The Trustees of Columbia University in the city of New York, priority 2008, dated 2014)
